Reference: patent publication US7749953B2, “Methods compositions and articles of manufacture for modulating bone growth” (Yissum Research Development Company of the Hebrew …, priority 2002, dated 2010)
“Also recorded” adds a separate entry of the source.

Legend:
[1] = tested on: diaphyseal bone marrow derived stromal cells; assay: Cell count, TNSALP activity and mineralization in differentiating primary bone marrow stromal cells (10 days osteogenic medium); assay type: cell-based, mice; details: for number of diaphyseal bone marrow derived stromal cells: cells grown 10 days in osteogenic medium, counted after 48 h with ligand
Protocol: mRNA analysis: Primary osteoblastogenic cultures of stromal cells were prepared from femoral and tibial diaphyseal bone marrow of WT C57BL/6J mice and grown in “osteogenic medium” containing ascorbic acid, β-glycerophophate and dexamethasone (Sigma) as described by Frenkel et al. (17). Real-time RT-PCR analysis was carried out using Applied Biosystems Assay-on-Demand. Data was normalized GAPDH. Assay ID: GAPDH, Mm99999915_g1; CB1, Mm00432621_s1; CB2, Mm00438286_m1; PTHRc1, Mm00441046_m1; RUNX2, Mm00501578_m1; TNSALP, Mm00475831_m1. RT-PCR analysis was carried out using the primers described by Lee et al. (19).
(§1) In vitro effect of HU-308: Differentiating primary bone marrow stromal cells and MC3T3 E1 osteoblasts were initially incubated in osteogenic medium for 10 days followed by 2 h serum starvation. Ligands were dissolved in dimethylsulfoxide (DMSO) and further diluted to their final concentration using tissue culture medium. In the primary cultures, cells were counted after 48 h incubation in αMEM supplemented with 4% BSA and ligand. BrdU incorporation was determined in MC3T3 E1 cells after 24 h incubation with HU-308 preceded by 2 h with pertussis toxin (PTX). DNA content, tissue non-specific alkaline phosphatase (TNSALP) activity and calcium were determined in MC3T3 E1 cells grown for 20 days in osteogenic medium and supplemented with HU-308 in the last 14 days. The effect of HU-308 on osteoclast differentiation was measured in the osteoclastogenic system described above, supplemented with HU-308 dissolved initially in DMSO and diluted with medium. HU-308 was also tested in a RAW 264.7 cell grown for 7 days in RANKL-supplemented medium. For osteoclast-like cell counts the cultures were fixed in ethanol and TRAP-stained.

[2] = tested on: 11 week-old C3H (Harlan) mice; assay: In vivo bone formation activity, calcein dynamic histomorphometry of distal femoral metaphysis
Protocol: The endocannabinoid 2-arachidonoyl glycerol (2AG) and the CB1 cannabinoid receptor antagonist N-(piperidin-1-yl)-5-(4-chlorophenyl)-1-(2,4-dichlorophenyl)4-methyl-1H-pyrazole-3-carboxamide hydrochloride (SR-141761A; Panikashvili et al., Nature 413: 527-531 (2001)] were dissolved in 1:1:18 ethanol:emulfor:saline (v/v/v) vehicle. Different dosages of each agent were daily injected intraperitoneally to 11 week-old C3H (Harlan) mice. 2AG was administered at 0 (vehicle control), 0.5, 5, and 20 mg/Kg body weight per day for 9 days; SR-141761A was administered at 1 and 10 mg/Kg body weight per day for 9 days.
To assess the in vivo bone formation activity the mice were given 15 mg/Kg body weight calcein intrapertoneally, four days and one day (same day as the last 2AG injection) prior to sacrifice. Femoral bones were separated immediately after sacrifice and subjected, undecalcified, to histological processing. Dynamic bone histomorphometric parameters were analyzed in the distal metaphysis (secondary spongiosa) in unstained longitudinal mid-saggital sections, using the procedure described by Parfitt et al. [J. Bone Miner. Res. 2: 595-610 (1987)]. The data obtained were statistically analyzed by Mann-Whitney U-test to determine significance of differences between the treatments.

[3] = tested on: primary bone marrow derived monocytes; assay: Osteoclast differentiation, TRAP-positive osteoclast-like cell count in bone marrow derived monocyte culture with M-CSF and RANKL; assay type: cell-based, Mouse; details: 5 days in the presence of M-CSF and RANKL
Protocol: Mouse femoral monocytes were separated on a Ficoll gradient and grown in culture for 5 days in medium containing the osteoclast differentiation factors M-CFS and RANKL as described by Zou et al FASEB J 2002; 16:274-82). At the end of incubation cultures were analyzed for CB2 and FAAH expression by RT-PCR as described above, and were stained with an osteoclast marker tartarate-resistant acid phosphatase for direct observation of differentiated osteoclasts.
as §1, with “Ligands were dissolved in dimethylsulfoxide (DMSO) and further diluted to their final concentration using tissue culture medium.” left out, “HU-308 was also tested in a RAW 264.7 cell grown for 7 days in RANKL-supplemented medium. For osteoclast-like cell counts the cultures were fixed in ethanol and TRAP-stained.” left out

OVX C3H mice = assay: OVX-induced femoral bone loss, μCT and histomorphometry; assay type: in vivo; details: HU-308 10 mg/Kg/day i.p.
Protocol: Animals: Mice with a deletion of the CNR2 gene (CB2^−/− mice) (9) were crossed for 10 generations to wild type C57BL/6J mice to generate a congenic C57BL/6J CB2^−/− strain. The effect of CB2 signalling on OVX-induced bone loss was analysed in normal C3H mice (Harlan, Israel) due to their high femoral bone density (10), which allows for a substantial amount of bone loss to occur. Because of the low trabecular bone volume density in C57BL/6J females (FIG. 8A), the absolute amount of OVX-induced bone loss in these animals is small and a large sample is required to achieve statistical significance. In addition, the number of calcein labelled packets (see below) in OVX C57BL/6J mice is often too small for the calculation of bone formation parameters in the trabecular compartment. HU-308, synthetic CB2 specific agonist with a MW of 414 g/mol, was prepared as described by Hildebrand et al. (11) and injected intraperitoneally to OVX and control mice once daily as ethanol/emulphor/saline (1:1:18) solution. To study bone formation, newly formed bone was vitally labelled in all reported animals by the fluorochrome calcein (Sigma), injected intraperitoneally (15 mg/Kg) four days and one day prior to sacrifice. Groups of 8-10 mice, 8-11 or 51 weeks old, were used in each experiment. The experimental protocols were approved by the Institutional Animal Care and Use Committee, Faculty of Medicine, the Hebrew University of Jerusalem, Israel and by the Regierungspräsidium Köln for the University of Bonn, Germany.
Micro-computed tomographic (μCT) analysis: The μCT Analyses were performed as described in Example 1 above.
Histomorphometry and immunohistochemistry: After μCT image acquisition, the specimens were embedded undecalcified in Technovit 9100 (Heraeus Kulzer, Wehrheim, Germany). Longitudinal sections through the mid-frontal plane were left unstained for dynamic histomorphometry based on the vital calcein double labeling. To identify osteoclasts, consecutive sections were stained for tartrate-resistant acid phosphatase (TRAP) (14). Parameters were determined according to a standardized nomenclature (15). Immunohistochemistry was performed using paraffin-embedded decalcified sections (16) with a polyclonal first antibody raised against the human CB2(20-33) peptide (Cayman Ann Arbor, Mich.; Cat. No. 101550). The same peptide (Cayman Ann Arbor, Mich.; Cat. No. 301550) was used to block protein-antibody complex formation in control staining.
Statistical Analyses: Differences between CB2^−/− and WT mice were analysed by t-test. HU-308 and vehicle treated OVX and sham-OVX mice were analysed by ANOVA. When significant differences were indicated by ANOVA, group means were compared using the Tukey test for pairwise comparisons.

RAW 264.7 cells = assay: Osteoclast-like cell count in RAW 264.7 cell culture; assay type: cell-based; details: 7-day RAW 264.7 cell culture supplemented with M-CSF
Protocol: as §1

MC3T3 E1 cells = assay: BrdU incorporation (DNA synthesis) in partially differentiated MC3T3 E1 osteoblastic cells; assay type: cell-based, murine; details: 24 h exposure to HU-308
Protocol: as §1

mature MC3T3 E1 cells = assay: DNA content, TNSALP activity and calcium in mature MC3T3 E1 osteoblasts; assay type: cell-based, murine; details: 20 days osteogenic medium, HU-308 during last 14 days
Protocol: as §1

[4] = SR-141761A up to 10 mg/Kg/day i.p. for 9 days, data not shown
[5] = 4 weeks from ovariectomy, distal femoral metaphysis
[6] = early differentiation stage (10 days osteogenic medium)
[7] = 2AG up to 5 mg/Kg/day i.p. for 9 days, followed by a plateau

In the case of CCCCC/C=C\C/C=C\C/C=C\C/C=C\CCCCOC(CO)CO [Noladin ether, 2-arachidonyl glyceryl ether, reference compound], the “number of diaphyseal bone marrow derived stromal cells” value [1] is reported as “no significant effect”.

Cc1c(C(=O)NN2CCCCC2)nn(-c2ccc(Cl)cc2Cl)c1-c1ccc(Cl)cc1.Cl [SR-141761A, N-(piperidin-1-yl)-5-(4-chlorophenyl)-1-(2,4-dichlorophenyl)4-methyl-1H-pyrazole-3-carboxamide hydrochloride] was tested, and the “BFR (osteoblastic activity) vs vehicle control” value [2, 4] was “higher (but not statistically different)” and the “MP (osteoblast number) vs vehicle control” value [2, 4] was “higher and statistically different”.

In the case of CCCCCCC(C)(C)c1cc(OC)c([C@H]2C=C(CO)C3CC2C3(C)C)c(OC)c1 (single isomer, unassigned; (+)) [HU-308, (+)-(1-a-H,-(3-H,5-a-H)-4-(2,6-dimethoxy-4-(1,1-dimethylhept-yl)phenyl]-6,6 dimethylbicycloj3.1.1]hept-2-ene-2-carbinol], the “number of osteoclast-like cells” value [3] is reported as “dose dependently inhibited”, the “bone formation in the trabecular compartment” value (OVX C3H mice; 4 weeks from ovariectomy) is reported as “did not stimulate” and the “OVX-induced trabecular bone loss (trabecular bone volume density)” value (OVX C3H mice; [5]) is reported as “attenuation”. For the same molecule, the osteoclast number (OVX C3H mice; [5]) was “further inhibited”, the endocortical bone formation (OVX C3H mice; 4 weeks, mid-diaphysis) was “vast stimulation” and the “size of the medullary cavity” value (OVX C3H mice; 4 weeks, mid-diaphysis) was “significant reduction”. The cortical thickness (OVX C3H mice; 4 weeks, mid-diaphysis, exceeded OVX and sham-OVX mice) was “marked increase”, the “number of osteoclast-like cells” value (RAW 264.7 cells) was “reduced” and the “number of diaphyseal bone marrow derived stromal cells” value [1] was “potently increased”. For the same molecule, the TNSALP activity [1, 6] was “unaffected”, the matrix mineralization [1, 6] was “unaffected” and the “DNA synthesis (BrdU uptake)” value (MC3T3 E1 cells) was “stimulation”. For the same molecule, the TNSALP activity (mature MC3T3 E1 cells) was “markedly enhanced”, the “accumulation of extracellular mineral” value (mature MC3T3 E1 cells) was “markedly enhanced” and the “cell number (measured as DNA content)” value (mature MC3T3 E1 cells; compared with partially differentiated cells) was “milder”.

In the case of CCCCC/C=C\C/C=C\C/C=C\C/C=C\CCCC(=O)OC(CO)CO [2AG, 2-arachidonoyl glycerol], the “uptake of fluorescently labeled calcein in bone tissue (fluorescent histological images)” value ([2]; 2AG 5 mg/Kg/day vs vehicle-treated controls) is reported as “visibly increased”, the “mineralizing perimeter (MP) vs control” value ([2]; 2AG 5 and 20 mg/Kg/day i.p. for 9 days, p=0.019) is reported as “substantially and significantly higher” and the “bone-formation rate (BFR) higher than the vehicle control” value ([2]; 2AG 5 and 20 mg/Kg/day intraperitoneally for 9 days, p=0.04) is reported as “up to 44%”. The mineral appositional rate ([2]; 2AG i.p. for 9 days) was “no significant effect”, the “bone-formation rate (BFR), dose response” value [2, 7] was “dose-dependent stimulation; also recorded: significant positive dose response effect” and the “mineralizing perimeter (MP), dose response” value [2, 7] was “dose-dependent increase”.
